Source: patent US7429592B2, “Cyanoanthranilamide derivatives and the use thereof as medicaments” (Schering Aktienegesellschaft, priority 2001, dated 2008)

Key:
VEGFR II (KDR) = VEGFR II (KDR) (Homo sapiens, UniProt P35968); assay: Inhibition of the KDR kinase activity (33P-ATP, poly-(Glu4Tyr) substrate, phosphocellulose filter); format: biochemical; conditions: 10 minutes at room temperature; phosphate incorporation
Method: • Stock solution A: 3 mmol of ATP in water, pH 7.0 (−70° C.) • Stock solution B: g-33P-ATP 1 mCi/100 μl • Stock solution C: poly-(Glu4 Tyr) 10 mg/ml in water Solution for Dilutions • Substrate solvent: 10 mmol of DTT, 10 mmol of manganese chloride, 100 mmol of magnesium chloride • Enzyme solution: 120 mmol of tris/HCl, pH 7.5, […] of sodium vanadium oxide
Inhibition of the KDR- and FLT-1 Kinase Activity in the Presence of the Compounds According to the Invention
In a microtiter plate (without protein binding) that tapers to a point, 10 μl of substrate mix (10 μl of volume of ATP stock solution A+25 μCi of g-33P-ATP (about 2.5 μl of stock solution B)+30 μl of poly-(Glu4Tyr) stock solution C+1.21 ml of substrate solvent), 10 μl of inhibitor solution (substances corresponding to the dilutions, 3% DMSO in substrate solvent as a control) and 10 μl of enzyme solution (11.25 μg of enzyme stock solution (KDR or FLT-1 kinase) are added at 4° C. in 1.25 ml of enzyme solution (dilute). It is thoroughly mixed and incubated for 10 minutes at room temperature. Then, 10 μl of stop solution ([…] of EDTA, pH 7.0) is added, mixed, and 10 μl of the solution is transferred to a P 81 phosphocellulose filter. Then, it is washed several times in 0.1 M phosphoric acid. The filter paper is dried, coated with Meltilex and measured in a microbeta counter.
The IC50 values are determined from the inhibitor concentration, which is necessary to inhibit the phosphate incorporation to 50% of the uninhibited incorporation after removal of the blank reading (EDTA-stopped reaction).

Cytochrome P450 3A4 = molecular target: T1, Cytochrome P450 3A4 (Homo sapiens, UniProt P08684); assay: Cytochrome P450 inhibition (Crespi et al.); format: in vitro ADME; conditions: baculovirus/insect cell-expressed human isoenzyme 3A4; read-out: Inhibition of the Cytochrome P450 Isoenzymes IC50, 3A4
T1 construct: host or cells: baculovirus/insect cells
T1 sequence (P08684 whole entry): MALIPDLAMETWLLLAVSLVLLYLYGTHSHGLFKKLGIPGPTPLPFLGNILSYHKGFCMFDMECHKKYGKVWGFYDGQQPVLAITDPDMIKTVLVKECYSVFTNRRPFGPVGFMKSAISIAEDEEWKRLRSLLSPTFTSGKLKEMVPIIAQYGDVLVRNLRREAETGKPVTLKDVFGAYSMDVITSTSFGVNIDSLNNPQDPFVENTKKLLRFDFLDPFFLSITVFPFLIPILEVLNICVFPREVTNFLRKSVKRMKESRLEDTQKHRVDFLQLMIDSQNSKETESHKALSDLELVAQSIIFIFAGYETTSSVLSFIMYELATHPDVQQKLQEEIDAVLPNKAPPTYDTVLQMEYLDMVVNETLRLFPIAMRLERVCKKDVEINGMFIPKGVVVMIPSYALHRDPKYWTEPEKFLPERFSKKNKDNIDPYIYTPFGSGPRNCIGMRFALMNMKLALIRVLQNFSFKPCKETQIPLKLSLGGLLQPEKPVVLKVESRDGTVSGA
Method: (§1) The Cytochrome P450 inhibition was performed according to the publication of Crespi et al. (Anal. Biochem., 248, 188-190 (1997)) with use of baculovirus/insect cell-expressed, human Cytochrome P 450 isoenzymes (1A2, 2C9, 2C19, 2D6, 3A4).

Cytochrome P450 1A2 = molecular target: T2, Cytochrome P450 1A2 (Homo sapiens, UniProt P05177); assay: Cytochrome P450 inhibition (Crespi et al.); format: in vitro ADME; conditions: baculovirus/insect cell-expressed human isoenzyme 1A2; read-out: Inhibition of the Cytochrome P450 Isoenzymes IC50, 1A2
T2 construct: host or cells: baculovirus/insect cells
T2 sequence (P05177 1-516): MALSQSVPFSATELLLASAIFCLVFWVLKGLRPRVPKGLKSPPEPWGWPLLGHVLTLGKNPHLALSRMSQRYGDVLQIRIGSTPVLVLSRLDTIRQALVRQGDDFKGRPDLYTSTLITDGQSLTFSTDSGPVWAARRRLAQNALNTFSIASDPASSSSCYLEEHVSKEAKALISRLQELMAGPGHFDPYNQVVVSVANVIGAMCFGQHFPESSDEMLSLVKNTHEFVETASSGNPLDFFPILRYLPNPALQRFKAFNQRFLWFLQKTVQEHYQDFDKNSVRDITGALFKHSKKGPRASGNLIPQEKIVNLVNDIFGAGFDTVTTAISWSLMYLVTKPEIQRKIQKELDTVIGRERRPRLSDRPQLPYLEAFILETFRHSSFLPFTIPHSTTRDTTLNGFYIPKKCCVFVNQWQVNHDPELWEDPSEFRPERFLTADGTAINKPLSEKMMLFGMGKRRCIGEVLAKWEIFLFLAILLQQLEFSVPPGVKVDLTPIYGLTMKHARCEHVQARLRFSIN
Method: as §1

Cytochrome P450 2C19 = molecular target: T3, Cytochrome P450 2C19 (Homo sapiens, UniProt P33261); assay: Cytochrome P450 inhibition (Crespi et al.); format: in vitro ADME; conditions: baculovirus/insect cell-expressed human isoenzyme 2C19; read-out: Inhibition of the Cytochrome P450 Isoenzymes IC50, 2C19
T3 construct: host or cells: baculovirus/insect cells
T3 sequence (P33261 whole entry): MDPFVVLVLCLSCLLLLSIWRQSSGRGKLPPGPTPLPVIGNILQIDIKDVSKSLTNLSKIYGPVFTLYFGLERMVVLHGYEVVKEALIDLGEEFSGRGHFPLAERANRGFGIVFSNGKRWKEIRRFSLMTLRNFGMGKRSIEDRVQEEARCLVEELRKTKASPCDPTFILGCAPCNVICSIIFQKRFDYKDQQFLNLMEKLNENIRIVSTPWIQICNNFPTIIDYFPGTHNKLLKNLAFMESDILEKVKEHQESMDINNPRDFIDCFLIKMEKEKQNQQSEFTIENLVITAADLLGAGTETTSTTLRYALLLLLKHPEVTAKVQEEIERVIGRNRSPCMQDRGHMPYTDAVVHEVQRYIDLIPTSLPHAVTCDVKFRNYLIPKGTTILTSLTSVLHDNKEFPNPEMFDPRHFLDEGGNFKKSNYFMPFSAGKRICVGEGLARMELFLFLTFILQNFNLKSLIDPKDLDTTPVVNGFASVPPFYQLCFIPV
Method: as §1

Cytochrome P450 2C9 = molecular target: T4, Cytochrome P450 2C9 (Homo sapiens, UniProt P11712); assay: Cytochrome P450 inhibition (Crespi et al.); format: in vitro ADME; conditions: baculovirus/insect cell-expressed human isoenzyme 2C9; read-out: Inhibition of the Cytochrome P450 Isoenzymes IC50, 2C9
T4 construct: host or cells: baculovirus/insect cells
T4 sequence (P11712 whole entry): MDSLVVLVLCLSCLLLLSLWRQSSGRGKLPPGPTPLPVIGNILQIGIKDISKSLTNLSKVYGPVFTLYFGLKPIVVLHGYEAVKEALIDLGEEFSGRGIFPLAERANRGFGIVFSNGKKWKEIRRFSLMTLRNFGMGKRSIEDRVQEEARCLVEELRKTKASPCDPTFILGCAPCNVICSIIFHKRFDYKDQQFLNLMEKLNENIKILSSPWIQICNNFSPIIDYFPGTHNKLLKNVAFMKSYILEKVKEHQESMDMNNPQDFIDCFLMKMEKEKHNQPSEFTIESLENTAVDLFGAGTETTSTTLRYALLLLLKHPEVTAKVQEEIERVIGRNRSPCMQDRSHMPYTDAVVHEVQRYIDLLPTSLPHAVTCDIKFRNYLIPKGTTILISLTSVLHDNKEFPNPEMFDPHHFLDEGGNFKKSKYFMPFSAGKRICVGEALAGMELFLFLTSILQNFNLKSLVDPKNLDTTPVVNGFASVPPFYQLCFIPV
Method: as §1

Cytochrome P450 2D6 = molecular target: T5, Cytochrome P450 2D6 (Homo sapiens, UniProt P10635); assay: Cytochrome P450 inhibition (Crespi et al.); format: in vitro ADME; conditions: baculovirus/insect cell-expressed human isoenzyme 2D6; read-out: Inhibition of the Cytochrome P450 Isoenzymes IC50, 2D6
T5 construct: host or cells: baculovirus/insect cells
T5 sequence (P10635 whole entry): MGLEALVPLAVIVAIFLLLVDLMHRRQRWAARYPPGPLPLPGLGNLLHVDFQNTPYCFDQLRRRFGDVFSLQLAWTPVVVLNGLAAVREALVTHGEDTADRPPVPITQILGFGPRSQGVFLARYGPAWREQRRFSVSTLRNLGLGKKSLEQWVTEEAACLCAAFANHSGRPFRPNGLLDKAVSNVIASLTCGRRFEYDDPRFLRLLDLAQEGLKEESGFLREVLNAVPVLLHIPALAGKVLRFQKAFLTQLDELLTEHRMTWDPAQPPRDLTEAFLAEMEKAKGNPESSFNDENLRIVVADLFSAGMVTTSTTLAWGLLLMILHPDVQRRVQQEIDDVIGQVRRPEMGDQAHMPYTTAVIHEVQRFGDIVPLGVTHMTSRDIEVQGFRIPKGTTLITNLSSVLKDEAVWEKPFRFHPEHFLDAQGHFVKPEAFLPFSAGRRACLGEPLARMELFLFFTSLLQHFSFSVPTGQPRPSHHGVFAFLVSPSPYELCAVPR
Method: as §1

VEGFR II (KDR), sequence (P35968 20-1356, species assumed): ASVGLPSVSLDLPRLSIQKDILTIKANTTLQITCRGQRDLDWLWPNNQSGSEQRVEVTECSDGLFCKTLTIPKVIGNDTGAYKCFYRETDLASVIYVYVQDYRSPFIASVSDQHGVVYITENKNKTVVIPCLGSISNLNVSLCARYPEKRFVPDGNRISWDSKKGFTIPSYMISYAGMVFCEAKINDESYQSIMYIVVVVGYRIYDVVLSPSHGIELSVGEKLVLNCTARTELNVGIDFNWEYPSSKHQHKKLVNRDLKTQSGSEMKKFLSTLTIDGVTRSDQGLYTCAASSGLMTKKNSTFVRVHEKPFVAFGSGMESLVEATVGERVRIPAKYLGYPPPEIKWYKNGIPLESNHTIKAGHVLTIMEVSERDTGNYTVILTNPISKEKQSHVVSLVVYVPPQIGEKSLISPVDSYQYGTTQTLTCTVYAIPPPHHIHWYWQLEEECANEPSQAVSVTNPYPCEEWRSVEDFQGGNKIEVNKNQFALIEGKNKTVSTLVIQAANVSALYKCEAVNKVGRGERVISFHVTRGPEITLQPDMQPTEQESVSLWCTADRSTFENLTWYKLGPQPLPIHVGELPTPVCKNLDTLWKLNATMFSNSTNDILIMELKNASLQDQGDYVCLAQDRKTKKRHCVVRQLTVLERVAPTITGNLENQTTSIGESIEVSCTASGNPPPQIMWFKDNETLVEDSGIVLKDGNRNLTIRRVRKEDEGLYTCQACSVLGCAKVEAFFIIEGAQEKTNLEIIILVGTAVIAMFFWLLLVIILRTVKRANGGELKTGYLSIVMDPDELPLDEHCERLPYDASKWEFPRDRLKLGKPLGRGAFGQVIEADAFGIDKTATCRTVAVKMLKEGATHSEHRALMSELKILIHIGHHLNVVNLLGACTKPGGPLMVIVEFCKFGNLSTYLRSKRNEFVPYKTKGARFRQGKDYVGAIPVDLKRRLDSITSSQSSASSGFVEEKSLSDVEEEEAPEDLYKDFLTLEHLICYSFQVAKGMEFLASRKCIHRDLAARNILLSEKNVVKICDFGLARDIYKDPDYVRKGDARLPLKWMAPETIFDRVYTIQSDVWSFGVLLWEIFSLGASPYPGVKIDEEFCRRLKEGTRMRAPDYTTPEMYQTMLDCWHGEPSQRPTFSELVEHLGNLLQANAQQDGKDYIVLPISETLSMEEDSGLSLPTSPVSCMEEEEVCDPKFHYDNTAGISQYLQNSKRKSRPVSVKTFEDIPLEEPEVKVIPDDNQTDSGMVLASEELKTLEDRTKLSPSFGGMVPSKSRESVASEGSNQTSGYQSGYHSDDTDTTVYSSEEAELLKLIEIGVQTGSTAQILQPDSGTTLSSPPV

| Compound | IC50 (VEGFR II (KDR)) [nM] | melting point | further results |
| --- | --- | --- | --- |
| N#CCn1ncc2ccc(NC(=O)c3ccccc3NCc3ccnc(C#N)c3)cc21 [Example 5] | 300 | – | – |
| N#Cc1cc(CNc2ccccc2C(=O)Nc2ccc3c(c2)NC(=O)C3)ccn1 [Example 13] | 200 | – | – |
| COc1ccc2cc(NC(=O)c3ccccc3NCc3ccnc(C#N)c3)c(=O)oc2c1 [Example 11] | 200 | 165 to 167 °C | – |
| Cn1ncc2ccc(NC(=O)c3ccccc3NCc3ccnc(C#N)c3)cc21 [Example 10] | 200 | 155 to 158 °C | – |
| N#Cc1ccc(CNc2ccccc2C(=O)Nc2cc3ccccc3cn2)cn1 [Example 2] | 50 | 173.8 °C | – |
| COc1ccc2cc(C)c(NC(=O)c3ccccc3NCc3ccnc(C#N)c3)nc2c1 [Example 12] | 700 | 153 to 155 °C | – |
| Cn1cc2ccc(NC(=O)c3ccccc3NCc3ccnc(C#N)c3)cc2n1 [Example 15] | 200 | – | – |
| N#Cc1cc(CNc2ccccc2C(=O)Nc2cc3ccccc3cn2)ccn1 [Example 1] | 10 | – | IC50 (Cytochrome P450 3A4): > 30000 nM; IC50 (Cytochrome P450 1A2): > 30000 nM; IC50 (Cytochrome P450 2C19): 1800 nM; IC50 (Cytochrome P450 2C9): 1200 nM; IC50 (Cytochrome P450 2D6): > 30000 nM |
| N#Cc1ccc(CNc2ccccc2C(=O)Nc2ccc3c(c2)CC(=O)N3)cn1 [Example 4] | 300 | – | – |
| COc1ccc2cc(NC(=O)c3ccccc3NCc3ccc(C#N)nc3)c(=O)oc2c1 [Example 6] | 300 | 173.4 °C | – |
| N#Cc1ncccc1CNc1ccccc1C(=O)Nc1cc2ccccc2cn1 [Example 3] | 50 | 233.4 °C (dec.) | – |
| N#Cc1cc(CNc2ccccc2C(=O)Nc2ccc3cn[nH]c3c2)ccn1 [Example 16] | 100 | – | – |
